Results taken from patent US9365604B2, “Oligomer-nucleoside phosphate conjugates” (NEKTAR THERAPEUTICS, priority 2007, dated 2016).
Like-named read-outs stand apart in the source and are kept apart here. Values belong to the molecule of their own block, whether it stands above or below them.

Tests used:
DU145 = assay: Sulforhodamine B (SRB) growth inhibition assay; format: cell-based, Human; conditions: for GI50: cells exposed for 24 h, read-out: GI50 values (μM) DU145
Protocol: (§1) The aim was to determine the GI50 values for PEG-floxuridine conjugates against a panel of cell lines, and based on previous data from Xenograft studies. […] The test articles were solubilized in dimethylsulfoxide and were tested at four different molar (M) concentrations; 10^−4, 10^−5, 10^−6, M. GI50 (the concentration needed to reduce the growth of treated cells to half that of untreated control cells) was calculated for each condition ([(Ti−Tz)/(C-Tz)]×100=50, where Ti, Tz, and C refer to absorbance values obtained from each tested concentration, time zero, and control treatment, respectively).
as §1, with “The objective” for “The aim”, “the IC50” for “the GI50”, “for PEG-gemcitabine” for “for PEG-floxuridine”, “in dimethyl sulfoxide” for “in dimethylsulfoxide”, “10^−6, 10^−7” for “10^−6,”, “condition ([(Ti−Tz)/(C−Tz)]×100=50,” for “condition ([(Ti−Tz)/(C-Tz)]×100=50,”

NCI/ADR-RES = assay: Sulforhodamine B (SRB) growth inhibition assay; format: cell-based, Human; conditions: cells exposed for 24 h, read-out: GI50 values (μM) NCI/ADR-RES
Protocol: (§2) In Vitro Screening of PEG-Gemcitabine Monophosphate in Selected Human Cancer Cell Lines
(§3) The aim was to determine the GI50 values for PEG-floxuridine conjugates against a panel of cell lines, and based on previous data from Xenograft studies. The cells were exposed for 24 h, and cell viability assessed by using the Sulphorhodamine (SRB) assay. The test articles were solubilized in dimethylsulfoxide and were tested at four different molar (M) concentrations; 10^−4, 10^−5, 10^−6, M. GI50 (the concentration needed to reduce the growth of treated cells to half that of untreated control cells) was calculated for each condition ([(Ti−Tz)/(C-Tz)]×100=50, where Ti, Tz, and C refer to absorbance values obtained from each tested concentration, time zero, and control treatment, respectively).
as §3, with “The objective” for “The aim”, “the IC50” for “the GI50”, “for PEG-gemcitabine” for “for PEG-floxuridine”, “in dimethyl sulfoxide” for “in dimethylsulfoxide”, “10^−6, 10^−7” for “10^−6,”, “condition ([(Ti−Tz)/(C−Tz)]×100=50,” for “condition ([(Ti−Tz)/(C-Tz)]×100=50,”

HT-29 = assay: In vitro cytotoxicity assay (CellTiter-Glo); format: cell-based; conditions: for IC50: 72 h exposure, CellTiter-Glo
Protocol: (§4) The objective of these studies were to determine the IC50 values for PEG-floxuridine conjugates against floxuridine-resistant cell lines based on data from previous Xenograft studies. The cells were exposed for 72 h, and cell viability assessed by using the CellTiter-Glo assay.
(§5) The objective of these studies was to determine the IC50 values for PEG-gemcitabine conjugates against gemcitabine-resistant cell lines based on data from previous Xenograft studies. The cells were exposed for 72 h, and cell viability assessed by using the CellTiter-Glo assay.

MIA PaCa-2 = assay: In vitro cytotoxicity assay (CellTiter-Glo); format: cell-based; conditions: for IC50: 72 h exposure, CellTiter-Glo
Protocol: as §4, §5

HCT-116 = assay: In vitro cytotoxicity assay (CellTiter-Glo); format: cell-based; conditions: for IC50: 72 h exposure, CellTiter-Glo
Protocol: as §4, §5

Caco-2 cells [1] = assay: Bi-directional permeability in Caco-2 cells
Source text: (§6) Bi-Directional Permeability of PEG-Floxuridine Conjugates in Caco-2 and MDCK Cells

CAKI-1 = assay: In vitro cytotoxicity assay (CellTiter-Glo); format: cell-based; conditions: for IC50: 72 h exposure, CellTiter-Glo
Hop62 = assay: Sulforhodamine B (SRB) growth inhibition assay; format: cell-based, Human; conditions: for GI50: cells exposed for 24 h, read-out: GI50 values (μM) Hop62
Protocol: as §2, §1
as §1, with “The objective” for “The aim”, “the IC50” for “the GI50”, “for PEG-gemcitabine” for “for PEG-floxuridine”, “in dimethyl sulfoxide” for “in dimethylsulfoxide”, “10^−6, 10^−7” for “10^−6,”, “condition ([(Ti−Tz)/(C−Tz)]×100=50,” for “condition ([(Ti−Tz)/(C-Tz)]×100=50,”

MCF7 = assay: Sulforhodamine B (SRB) growth inhibition assay; format: cell-based, Human; conditions: for GI50: SRB assay
Protocol: as §2, §1
as §1, with “The objective” for “The aim”, “the IC50” for “the GI50”, “for PEG-gemcitabine” for “for PEG-floxuridine”, “in dimethyl sulfoxide” for “in dimethylsulfoxide”, “10^−6, 10^−7” for “10^−6,”, “condition ([(Ti−Tz)/(C−Tz)]×100=50,” for “condition ([(Ti−Tz)/(C-Tz)]×100=50,”

COLO205 = assay: Sulforhodamine B (SRB) growth inhibition assay; format: cell-based, Human; conditions: COLO205; SRB assay, cells exposed for 24 h; read-out: GI50 values (μM) COLO205
Protocol: as §2, §1
as §1, with “The objective” for “The aim”, “the IC50” for “the GI50”, “for PEG-gemcitabine” for “for PEG-floxuridine”, “in dimethyl sulfoxide” for “in dimethylsulfoxide”, “10^−6, 10^−7” for “10^−6,”, “condition ([(Ti−Tz)/(C−Tz)]×100=50,” for “condition ([(Ti−Tz)/(C-Tz)]×100=50,”

HCT15 = assay: Sulforhodamine B (SRB) growth inhibition assay; format: cell-based, Human; conditions: SRB assay, cells exposed for 24 h, read-out: GI50 values (μM) HCT15
Protocol: as §2, §1
as §1, with “The objective” for “The aim”, “the IC50” for “the GI50”, “for PEG-gemcitabine” for “for PEG-floxuridine”, “in dimethyl sulfoxide” for “in dimethylsulfoxide”, “10^−6, 10^−7” for “10^−6,”, “condition ([(Ti−Tz)/(C−Tz)]×100=50,” for “condition ([(Ti−Tz)/(C-Tz)]×100=50,”

A2780 = assay: Sulforhodamine B (SRB) growth inhibition assay; format: cell-based, Human; conditions: for GI50: SRB assay, cells exposed for 24 h, read-out: GI50 values (μM) A2780
Protocol: as §2, §1
as §1, with “The objective” for “The aim”, “the IC50” for “the GI50”, “for PEG-gemcitabine” for “for PEG-floxuridine”, “in dimethyl sulfoxide” for “in dimethylsulfoxide”, “10^−6, 10^−7” for “10^−6,”, “condition ([(Ti−Tz)/(C−Tz)]×100=50,” for “condition ([(Ti−Tz)/(C-Tz)]×100=50,”

HT29 = assay: Sulforhodamine B (SRB) growth inhibition assay; format: cell-based, Human; conditions: for GI50: cells exposed for 24 h, read-out: GI50 values (μM) HT29
Protocol: as §2, §1
as §1, with “The objective” for “The aim”, “the IC50” for “the GI50”, “for PEG-gemcitabine” for “for PEG-floxuridine”, “in dimethyl sulfoxide” for “in dimethylsulfoxide”, “10^−6, 10^−7” for “10^−6,”, “condition ([(Ti−Tz)/(C−Tz)]×100=50,” for “condition ([(Ti−Tz)/(C-Tz)]×100=50,”

MDCK cells [2] = assay: Bi-directional permeability in MDCK cells
Source text: as §6

[3] = Bi-directional permeability in Caco-2 cells; conditions: human
Source text: as §6

in vitro [4] = conditions: human, Caco-2
Source text: as §6

MDCK cells [5] = system: MDCK cells
Source text: as §6

in vitro [6] = conditions: dog, MDCK
Source text: as §6

[7] = Stability in cell culture medium (floxuridine release, HPLC); format: in vitro ADME
Protocol: The frozen samples were thawed and homogenized by vortex mixing. A 10 μl aliquot of the sample was transferred into a clean EPPENDORF tube. Samples were diluted with 190 μl methanol: water mixture (1:1, v/v). The tubes were vortex mixed and centrifuged for 10 min. The supernatant was transferred to HPLC vials and 10 μl volume of the sample was injected onto the HPLC system.

Caco-2 cells [8] = system: Caco-2 cells
Source text: as §6

[9] = Bi-directional permeability in MDCK cells; conditions: dog
Source text: as §6

[10] = GI50 of conjugate vs floxuridine

Structure (SMILES): COCCOCCOCCOCCOCCOCCOCCOP(=O)(O)OC[C@H]1O[C@@H](n2cc(F)c(=O)[nH]c2=O)C[C@@H]1O [Floxuridine Mono (mPEG7), 5′-floxuridine methoxy hepta(ethylene glycol) phosphate]
ratio vs flox (GI50) DU145 (DU145; [10]): 0.005
GI50 (DU145; SRB assay): 0.13 µM
GI50 (NCI/ADR-RES): < 0.1 µM
Ratio vs floxuridine (IC50) HT-29 (HT-29): 1
IC50 (HT-29): 76 nM
Ratio vs floxuridine (IC50) MIA PaCa-2 (MIA PaCa-2): 2
IC50 (MIA PaCa-2): 96 nM
Ratio vs floxuridine (IC50) HCT-116 (HCT-116): 2
IC50 (HCT-116): 48 nM
Papp A -> B (Caco-2 cells [1]): 0.14 10^−6 cm/s
Papp B -> A (Caco-2 cells [1]): 0.06 10^−6 cm/s
Papp B-A/Papp A-B (Caco-2 cells [1]): 0.4
Significant efflux (Caco-2 cells [1]): No
percent recovery A -> B (Caco-2 cells [1]): 79%
percent recovery B -> A (Caco-2 cells [1]): 89%
Ratio vs floxuridine (IC50) CAKI-1 (CAKI-1): 1
IC50 (CAKI-1): 157 nM
ratio vs flox (GI50) Hop62 (Hop62; [10]): 417
GI50 (Hop62; SRB assay): > 100 µM
ratio vs flox (GI50) MCF7 (MCF7; [10]): 0.9
GI50 (MCF7; 48 h drug exposure, read-out: GI50 in MCF7): 2.2 µM
GI50 (MCF7; cells exposed for 24 h, read-out: GI50 values (μM) MCF7): 0.13 µM
GI50 (COLO205): 1.9 µM
GI50 (HCT15): ~32 µM
ratio vs flox (GI50) A2780 (A2780; [10]): 35
GI50 (A2780): 2.3 µM
ratio vs flox (GI50) HT29 (HT29; [10]): 4
GI50 (HT29; SRB assay): > 100 µM
Papp A -> B (MDCK cells [2]): <0.06 10^−6 cm/s
Papp B -> A (MDCK cells [2]): <0.08 10^−6 cm/s
Significant efflux (MDCK cells [2]): No
percent recovery A -> B (MDCK cells [2]): 100%
percent recovery B -> A (MDCK cells [2]): 90%

GI50 (DU145; Homo sapiens, DU-145, SRB assay): 26 µM
recovery ([3]; Caco-2, percent recovery A -> B): 75%
recovery ([3]; Caco-2, percent recovery B -> A): 91%
Papp A→B (in vitro [4]): 0.75 ×10⁻⁶ cm/s
Papp B→A (in vitro [4]): 1.47 ×10⁻⁶ cm/s
efflux ratio (in vitro [4]): 2
Significant efflux (MDCK cells [5]): No
permeability through MDCK monolayers (in words) (MDCK cells [5]): poor permeability
Papp A→B (in vitro [6]): < 2.46 ×10⁻⁶ cm/s
Papp B→A (in vitro [6]): < 2.7 ×10⁻⁶ cm/s
Peak Area of measured floxuridine ([7]; HPLC, supernatant of MCF-7 culture after 48 h with test article): 119819
concentration of floxuridine estimated in culture medium ([7]; after cells were treated with test article): 24.44
Calculated Concentration (μg/mL) of floxuridine ([7]; diluted sample (10 μL diluted to 200 μL), MCF-7 culture supernatant, 48 h): 1.211 µg/mL
Total Calculated Concentration in the sample using dilution factor ([7]; floxuridine in MCF-7 culture supernatant, 48 h, nominal 24.6 μg/mL): 24.22
Significant efflux (Caco-2 cells [8]): No
permeability across Caco-2 monolayers (in words) (Caco-2 cells [8]): poor permeability
GI50 (MCF7; Homo sapiens, cells exposed for 24 h, read-out: GI50 values (μM) MCF7): 0.15 µM
GI50 (A2780; Homo sapiens): 0.065 µM
GI50 (HT29; Homo sapiens, HT-29, SRB assay): 25 µM
recovery ([9]; percent recovery A -> B): 50%
recovery ([9]; percent recovery B -> A): 82%
Structure (SMILES): O=c1[nH]c(=O)n([C@H]2C[C@H](O)[C@@H](CO)O2)cc1F [Floxuridine, reference compound]
IC50 (HT-29; Homo sapiens): 90 nM
IC50 (MIA PaCa-2; Homo sapiens): 54 nM
IC50 (HCT-116; Homo sapiens): 32 nM
IC50 (CAKI-1; Homo sapiens): 110 nM
GI50 (Hop62; Homo sapiens, HOP-62, SRB assay): 0.24 µM
